Tests used:
Experiment in all cases: relative viability (nuclei count vs DMSO), 5 days (fraction); higher = more cells survive
[1] = compound: CN1CCN(CC1)C2=CC(=C(C=C2)NC3=NC=C4C(=N3)N(C5=CC=CC=C5C(=O)N4C)C)OC [XMD8-85] + Cc1nc(NC(=O)N2CCC[C@H]2C(N)=O)sc1-c1ccnc(C(C)(C)C(F)(F)F)c1 [Alpelisib] (partner 2 µM)
Procedure, shortened: (§1)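 Lung cancer cell lines in 1536-well plates got either a single drug or a fixed anchor-drug dose together with five library-drug doses (not always all listed) in √10 steps, by pin tool, on the day after seeding. Nuclei were counted after 5 days, and relative viability is the treated-to-vehicle ratio of nuclei counts. Values are medians of duplicate plates.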

[2] = compound: CN1CCN(CC1)C2=CC(=C(C=C2)NC3=NC=C4C(=N3)N(C5=CC=CC=C5C(=O)N4C)C)OC [XMD8-85] + Cc1nc(Nc2ncc(C(=O)Nc3c(C)cccc3Cl)s2)cc(N2CCN(CCO)CC2)n1 [Dasatinib] (partner 0.075 µM)
Procedure, shortened: as §1

[3] = compound: O=C(O)C(Cc1ccccc1[N+](=O)[O-])=NNc1nc(-c2ccc(Cl)c(Cl)c2)cs1 (mixture of isomers) [4EGI-1] + COc1cc2c(Oc3ccc(NC(=O)C4(C(=O)Nc5ccc(F)cc5)CC4)cc3F)ccnc2cc1OCCCN1CCOCC1 [Foretinib] (partner 0.25 µM)
Procedure, shortened: as §1

[4] = compound: O=C(O)C(Cc1ccccc1[N+](=O)[O-])=NNc1nc(-c2ccc(Cl)c(Cl)c2)cs1 (mixture of isomers) [4EGI-1] + C[C@@H](Oc1cc(-c2cnn(C3CCNCC3)c2)cnc1N)c1c(Cl)ccc(F)c1Cl [Crizotinib] (partner 1 µM)
Procedure, shortened: as §1

Cell Line	relative viability ([1]; first compound 0.08 µM)	relative viability ([1]; first compound 0.253 µM)	relative viability ([1]; first compound 0.8 µM)	relative viability ([1]; first compound 2.53 µM)	relative viability ([1]; first compound 8 µM)	relative viability ([2]; first compound 0.253 µM)	relative viability ([2]; first compound 0.8 µM)	relative viability ([2]; first compound 2.53 µM)	relative viability ([2]; first compound 8 µM)	relative viability ([3]; first compound 0.5 µM)	relative viability ([3]; first compound 1.581 µM)	relative viability ([3]; first compound 5 µM)	relative viability ([3]; first compound 15.81 µM)	relative viability ([3]; first compound 50 µM)	relative viability ([4]; first compound 0.5 µM)	relative viability ([4]; first compound 1.581 µM)	relative viability ([4]; first compound 5 µM)	relative viability ([4]; first compound 15.81 µM)	relative viability ([4]; first compound 50 µM)	relative viability ([2]; first compound 0.08 µM)
201T	0.966	1.05	1	1.08	0.901	0.641	0.55	0.616	0.529	1.2	0.861	1.18	0.985	0.63	1.06	0.98	1.01	1.01	1.02	–
HARA	0.932	0.675	0.911	0.445	0.27	0.314	0.281	0.261	0.238	0.979	0.806	0.965	0.76	0.175	1.06	1.07	1.03	0.906	0.212	0.268
LC-2-ad	0.893	0.832	0.888	0.735	–	0.319	0.482	0.345	0.237	0.997	–	1.02	0.485	0.283	0.433	–	0.451	0.343	0.411	0.415
NCI-H661	–	0.596	0.551	0.819	0.552	0.888	0.856	0.834	0.455	0.999	0.94	0.994	0.714	0.313	0.903	–	0.954	0.903	0.882	0.81
NCI-H2087	1.18	1.05	1.21	1.35	0.808	0.802	0.959	0.79	0.472	1.23	1.09	1.39	0.855	0.29	0.896	0.754	0.811	0.643	0.478	0.953
EKVX	0.776	0.996	0.935	0.986	0.899	0.545	0.478	0.536	0.475	1.08	0.121	0.925	0.686	0.815	1.01	0.759	1.14	0.874	0.936	0.518
NCI-H650	1.09	0.928	1.17	0.979	0.592	0.51	0.437	0.418	0.304	1.13	–	1	0.958	0.897	0.847	–	0.811	0.596	0.59	0.446
NCI-H1355	0.844	0.89	0.807	0.731	–	0.753	0.653	0.819	–	0.932	0.87	0.962	0.851	0.738	1.18	0.952	1.03	0.779	0.748	0.671
HOP-62	0.85	0.967	1.04	0.908	–	0.594	0.661	–	0.433	1.17	0.716	1.1	1.17	0.656	0.667	–	0.938	0.89	0.574	0.644
BEN	0.871	1.06	0.966	0.662	0.553	0.332	0.38	0.27	0.301	0.694	0.474	0.781	0.753	0.524	1.07	1.1	0.885	0.821	0.796	0.322
NCI-H2023	0.488	0.623	0.66	0.664	0.334	0.521	0.586	0.619	0.314	0.88	–	0.772	0.45	0.149	0.766	–	0.637	0.442	0.302	0.426
NCI-H1651	0.948	0.951	1.04	0.954	0.548	0.334	0.511	0.387	0.307	0.893	0.608	0.818	0.729	0.784	0.853	0.823	0.911	0.803	0.836	0.46
ABC-1	1.03	1.15	1.37	1.01	–	–	0.503	0.673	0.408	1.21	0.896	1.17	0.587	0.271	1.23	0.7	1.09	0.472	0.259	0.515
NCI-H1666	1.01	0.829	0.9	1.05	0.74	0.827	0.808	0.773	0.701	1.01	0.924	1.04	0.671	0.417	1.12	1.03	1.19	0.632	0.253	0.822
LCLC-103H	0.88	1.04	0.933	0.961	0.728	0.476	0.575	0.505	0.379	0.791	0.675	0.764	0.733	0.367	1.05	0.926	0.937	0.857	1.05	0.425
LU99A	0.383	0.531	0.544	0.61	0.431	0.675	0.61	0.688	0.388	0.817	0.605	0.856	0.616	0.551	0.657	–	0.677	0.463	0.215	0.477
NCI-H322M	0.77	–	0.819	0.784	0.782	0.249	0.289	0.232	0.19	1.03	–	1.13	0.816	0.342	0.947	0.815	1.02	0.823	1.02	0.246

— the supplement of paper PMC10307832
